In PubChem BioAssay (NCI):
Where “and” joins values, the source holds several entries; their conditions need not be identical. Equal values may be shown once.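 Values below derive from 48-hour exposures of cells grown in 96-well plates, with endpoints linearly interpolated between the two concentrations bracketing the appropriate inhibition level. GI50 is the concentration that inhibits growth by half. TGI marks complete inhibition of growth.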

Experiments:
Experiment in all cases: NCI tumour cell line growth inhibition, 48 h
DLD-1 colon = system: DLD-1 colon
SNB-78 CNS = system: SNB-78 CNS
MDA-N = system: MDA-N
DMS 273 small cell lung = system: DMS 273 small cell lung
KM20L2 colon = system: KM20L2 colon
XF 498 CNS = system: XF 498 CNS
LXFL 529 NSCLC = system: LXFL 529 NSCLC
HOP-18 NSCLC = system: HOP-18 NSCLC
RXF-631 renal = system: RXF-631 renal

**Q.** CSc1nc(C)c(Br)c(=O)n1C1OC(COC(C)=O)C(OC(C)=O)C(OC(C)=O)C1OC(C)=O (configuration not stated) was tested. Which TGI (DLD-1 colon) did it give?
**A.** > 100 µM

**Q.** What about the GI50 (SNB-78 CNS) of the same compound?
**A.** 17 µM and 63.6 µM

**Q.** And the TGI (SNB-78 CNS)?
**A.** 64.8 µM and > 100 µM

**Q.** And the TGI (MDA-N)?
**A.** > 100 µM

**Q.** And the TGI (DMS 273 small cell lung)?
**A.** > 100 µM

**Q.** And the TGI (KM20L2 colon)?
**A.** > 100 µM

**Q.** And the TGI (XF 498 CNS)?
**A.** 43.6 µM

**Q.** And the GI50 (LXFL 529 NSCLC)?
**A.** > 100 µM and 32.1 µM

**Q.** And the TGI (LXFL 529 NSCLC)?
**A.** > 100 µM and 76.4 µM

**Q.** What about the TGI (HOP-18 NSCLC) of the same compound?
**A.** > 100 µM

**Q.** Which TGI (DLD-1 colon) does the source give for COc1ccccc1C(N)c1ccccc1 (configuration not stated) here?
**A.** > 100 µM

**Q.** What about the TGI (SNB-78 CNS) of the same compound?
**A.** > 100 µM

**Q.** What about the TGI (DMS 273 small cell lung) of the same compound?
**A.** > 100 µM

**Q.** And the TGI (KM20L2 colon)?
**A.** > 100 µM

**Q.** And the TGI (LXFL 529 NSCLC)?
**A.** > 100 µM

**Q.** And the TGI (HOP-18 NSCLC)?
**A.** > 100 µM

**Q.** For OCC1OC2OC3C(CO)OC(OC4C(CO)OC(OC5C(CO)OC(OC6C(CO)OC(OC7C(CO)OC(OC1C(O)C2O)C(O)C7O)C(O)C6O)C(O)C5O)C(O)C4O)C(O)C3O (configuration not stated) (tested in a mixture with another compound), which TGI (MDA-N) is on record?
**A.** 39.9 µM

**Q.** Which GI50 (DLD-1 colon) does the source give for O=C(O)c1cccc2cccc(C(=O)O)c12.[Hg] here?
**A.** 8.42 µM

**Q.** What about the TGI (DLD-1 colon) of the same compound?
**A.** 23 µM

**Q.** And the GI50 (DMS 273 small cell lung)?
**A.** 15.4 µM

**Q.** And the TGI (DMS 273 small cell lung)?
**A.** 31.4 µM

**Q.** And the GI50 (KM20L2 colon)?
**A.** > 100 µM

**Q.** What about the TGI (KM20L2 colon) of the same compound?
**A.** > 100 µM

**Q.** And the GI50 (LXFL 529 NSCLC)?
**A.** 14.6 µM

**Q.** What about the TGI (LXFL 529 NSCLC) of the same compound?
**A.** 28.1 µM

**Q.** And the GI50 (HOP-18 NSCLC)?
**A.** 18.6 µM

**Q.** And the TGI (HOP-18 NSCLC)?
**A.** 35.3 µM

**Q.** What does the source list for NC(=O)Nc1c([N+](=O)[O-])cc(C(F)(F)F)cc1[N+](=O)[O-]?
**A.** TGI (SNB-78 CNS): > 100 µM; TGI (DMS 273 small cell lung): > 100 µM; TGI (KM20L2 colon): 80.6 µM; TGI (XF 498 CNS): > 100 µM; TGI (LXFL 529 NSCLC): > 100 µM; TGI (RXF-631 renal): > 100 µM

**Q.** Which TGI (DMS 273 small cell lung) does the source give for CCC1CC(C)=CCN1S(=O)(=O)c1ccc(C)cc1 (configuration not stated) here?
**A.** 67.9 µM

**Q.** And the TGI (KM20L2 colon)?
**A.** 36 µM

**Q.** And the TGI (LXFL 529 NSCLC)?
**A.** > 100 µM

**Q.** What does the source list for COc1cc(Nc2nc3cc(C(F)(F)F)ccc3nc2-c2ccccc2)cc(OC)c1OC?
**A.** TGI (DLD-1 colon): > 100 µM; TGI (SNB-78 CNS): > 100 µM; TGI (DMS 273 small cell lung): > 100 µM; TGI (XF 498 CNS): 55.2 µM; TGI (LXFL 529 NSCLC): > 100 µM; TGI (RXF-631 renal): > 100 µM

**Q.** CC(C(=O)O)/C(=C\c1ccc2c(c1)OCO2)C(=O)O (configuration not stated) was tested. Which TGI (DLD-1 colon) did it give?
**A.** > 100 µM

**Q.** And the TGI (MDA-N)?
**A.** > 100 µM

**Q.** And the TGI (DMS 273 small cell lung)?
**A.** > 100 µM

**Q.** What about the TGI (KM20L2 colon) of the same compound?
**A.** > 100 µM

**Q.** And the TGI (XF 498 CNS)?
**A.** > 100 µM

**Q.** And the TGI (LXFL 529 NSCLC)?
**A.** > 100 µM

**Q.** What about the TGI (HOP-18 NSCLC) of the same compound?
**A.** > 100 µM

**Q.** What about the TGI (RXF-631 renal) of the same compound?
**A.** > 100 µM

**Q.** COC(=O)C1=C(c2ccc3c(c2)OCO3)OC(c2ccc3c(c2)OCO3)C1 (configuration not stated) was tested. Which TGI (DLD-1 colon) did it give?
**A.** > 100 µM

**Q.** What about the TGI (SNB-78 CNS) of the same compound?
**A.** > 100 µM

**Q.** What about the TGI (DMS 273 small cell lung) of the same compound?
**A.** > 100 µM

**Q.** What about the TGI (KM20L2 colon) of the same compound?
**A.** > 100 µM

**Q.** And the TGI (XF 498 CNS)?
**A.** > 100 µM

**Q.** What about the TGI (LXFL 529 NSCLC) of the same compound?
**A.** > 100 µM

**Q.** What about the TGI (HOP-18 NSCLC) of the same compound?
**A.** > 100 µM

**Q.** What about the TGI (RXF-631 renal) of the same compound?
**A.** > 100 µM

**Q.** How did the TGI (DLD-1 colon) turn out when CCOC(=O)N[C@@H]1C2CC(=O)C(O2)[C@@H]1OC (some centres not stated) was run?
**A.** > 100 µM

**Q.** What about the TGI (SNB-78 CNS) of the same compound?
**A.** > 100 µM

**Q.** And the TGI (KM20L2 colon)?
**A.** > 100 µM

**Q.** What about the TGI (HOP-18 NSCLC) of the same compound?
**A.** > 100 µM
